Measured values taken from patent US7446177B2, “Uses of DC-SIGN and DC-SIGNR for inhibiting hepatitis C virus infection” (Progenics Pharmaceuticals, Inc., priority 2001, dated 2008).
“Also recorded” adds a separate entry of the source.

How the values were obtained:
[1] = target: T1, HCV-E2 binding to DC-SIGN-R (Homo sapiens, UniProt Q9H2X3); details: HeLa-DC-SIGN-R cells, 20 beads/cell; mannan 20 ug/ml, antibodies 0.1-10 ug/ml, EDTA or EGTA 5 mM
T1 construct: E2 from Accurate Chemicals, NY Item # 6749; E2 produced in CHO cells
Method: (§1) Carboxylate-modified FluoSpheres® NeutrAvidin™ labeled microspheres (505/515 nm, 1.0 um; Molecular Probes, Eugene, Oreg.) were coated with HCV E2 glycoprotein as described for ICAM-1 beads (Geijtenbeek et al, Blood, 94, 754-764 (1999)). Briefly, NeutrAvidin™-coated beads were sonicated, and washed in PBS/BSA (0.5%). Beads were incubated with biotinylated-Sp-conjugated AffiniPure F(ab′)2 goat anti-mouse IgG F(ab′)2 fragment specific (6 ug/ml in PBS/BSA (0.5%); Jackson Immunoresearch Laboratories, Inc., West Grove, Pa.) for 2 hours at 37° C. After washing, beads were incubated with mouse anti-E2 antibodies (6 ug/ml in PBS/BSA (0.5%)) at 4° C. overnight. The beads were washed and incubated with 250 ng/ml purified HCV E2 produced in CHO cells (Accurate Chemicals, NY) overnight at 4° C.
(§2) This was performed as described by Geijtenbeek et al, (Blood, 94, 754-764 (1999)), with modifications. Cells were removed from culture by cell dissociation solution (Sigma) for 5 minutes at 37° C. and washed three times in adhesion buffer (20 mM Tris-HCl [pH 8.0], 150 mM NaCl, 1 mM CaCl2, 2 mM MgCl2, and 0.5% BSA). Cells were resuspended at a final concentration of 5×10^6 cells/ml in adhesion buffer for 30 minutes at 4° C. to recharge Ca2+ levels. Cells ([…]) were preincubated with mannan (20 ug/ml; Sigma), antibodies (0.1-10 ug/ml), EDTA (5 mM) or EGTA (5 mM) for 10 minutes at room temperature. HCV-E2-coated fluorescent beads (20 beads/cell) were added, and the suspension incubated for 30 minutes at 37° C. Adhesion was determined by measuring the percentage of cells that bound fluorescent beads by flow cytometry using a FACSca (Becton Dickinson, Oxnard, Calif.).
(§3) To determine whether DC-SIGN and DC-SIGN-R bind to HCV-E2 glycoproetin, a flow cytometric adhesion assay (Geijtenbeek et al, Blood, 94, 754-764 (1999)) was adapted. HCV-E2 protein produced in CHO cells was captured on fluorescent beads using a panel of anti-E2 mAbs, which were incubated with DC-SIGN- and DC-SIGN-R-HeLa cells at a ratio of 20 beads per cell.

[2] = target: T2, HCV-E2 binding to DC-SIGN (Homo sapiens, UniProt Q9NNX6); details: HeLa-DC-SIGN cells, 20 beads/cell; mannan 20 ug/ml, antibodies 0.1-10 ug/ml, EDTA or EGTA 5 mM
T2 construct: E2 from Accurate Chemicals, NY Item # 5444; E2 produced in CHO cells
Method: as §1, §2, §3

T1 sequence (Q9H2X3 whole entry): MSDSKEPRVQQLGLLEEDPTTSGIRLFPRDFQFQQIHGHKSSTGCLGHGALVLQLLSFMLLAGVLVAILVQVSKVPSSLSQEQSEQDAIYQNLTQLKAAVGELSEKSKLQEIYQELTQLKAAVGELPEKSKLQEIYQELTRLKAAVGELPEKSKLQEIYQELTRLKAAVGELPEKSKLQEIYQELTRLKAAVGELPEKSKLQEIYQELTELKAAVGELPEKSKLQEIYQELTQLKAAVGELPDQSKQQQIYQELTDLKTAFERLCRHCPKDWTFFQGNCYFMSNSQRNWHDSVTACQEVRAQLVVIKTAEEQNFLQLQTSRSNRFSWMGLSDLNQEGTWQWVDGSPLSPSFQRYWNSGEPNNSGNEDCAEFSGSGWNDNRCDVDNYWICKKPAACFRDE
T2 sequence (Q9NNX6 whole entry): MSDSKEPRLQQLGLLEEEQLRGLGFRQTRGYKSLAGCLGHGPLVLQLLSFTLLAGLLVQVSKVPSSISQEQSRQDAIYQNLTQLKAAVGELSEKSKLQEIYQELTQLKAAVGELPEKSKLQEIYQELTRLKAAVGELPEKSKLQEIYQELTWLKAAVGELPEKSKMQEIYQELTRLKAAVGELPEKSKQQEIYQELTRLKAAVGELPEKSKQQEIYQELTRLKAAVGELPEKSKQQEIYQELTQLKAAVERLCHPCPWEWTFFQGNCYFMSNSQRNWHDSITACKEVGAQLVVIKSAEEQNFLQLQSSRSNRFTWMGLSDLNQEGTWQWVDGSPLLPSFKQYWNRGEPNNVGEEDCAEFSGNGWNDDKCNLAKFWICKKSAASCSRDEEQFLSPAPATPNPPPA

## O=C(O)CN(CCN(CC(=O)O)CC(=O)O)CC(=O)O [EDTA]
[1]
  Inhibition of adhesion of HCV-E2-coated beads to DC-SIGN-R: efficiently inhibited
[2]
  Inhibition of adhesion of HCV-E2-coated beads to DC-SIGN: efficiently inhibited

## O=C(O)CN(CCOCCOCCN(CC(=O)O)CC(=O)O)CC(=O)O [EGTA]
[1]
  Inhibition of adhesion of HCV-E2-coated beads to DC-SIGN-R: efficiently inhibited
[2]
  Inhibition of adhesion of HCV-E2-coated beads to DC-SIGN: efficiently inhibited

## mannan
[1]
  Inhibition of adhesion of HCV-E2-coated beads to DC-SIGN-R: inhibit; also recorded: efficiently inhibited; also recorded: blocked
[2]
  Inhibition of adhesion of HCV-E2-coated beads to DC-SIGN: inhibit; also recorded: efficiently inhibited; also recorded: blocked
